Measurements taken from patent publication US6838414B2, “Substituted aryl sulphonyl(thio)ureas used as herbicides” (Bayer Aktiengesellschaft, priority 1996, dated 2005).

Legend:
Type in all cases: in vivo
weeds [1] = assay: Pre-emergence test (overall statement); settings: application rates between 30 g and 125 g of a.i. per hectare
Procedure: (§1) To produce a suitable preparation of active compound, 1 part by weight of active compound is mixed with the stated amount of solvent, the stated amount of emulsifier is added and the concentrate is diluted with water to the desired concentration.
(§2) Seeds of the test plants are sown in normal soil. After about 24 hours, the soil is sprayed with the preparation of the active compound. Advantageously, the amount of water per unit area is kept constant. The active compound concentration in the preparation is not important, only the active compound application rate per unit area is critical.
(§3) After three weeks, the degree of damage to the plants is rated in % damage in comparison with the development of the untreated control.
(§4) The figures denote: • 0%=no effect (like untreated control) • 100%=total destruction

Chenopodium = assay: Pre-emergence test/greenhouse; settings: 30 g of ai./ha, after three weeks
Procedure: as §1, §2, §3, §4

Alopecurus [2] = assay: Pre-emergence test/greenhouse; settings: 30 g of ai./ha, after three weeks
Procedure: as §1, §2, §3, §4

Stellaria = assay: Pre-emergence test/greenhouse; settings: 30 g of ai./ha, after three weeks
Procedure: as §1, §2, §3, §4

Amaranthus = assay: Pre-emergence test/greenhouse; settings: 30 g of ai./ha, after three weeks
Procedure: as §1, §2, §3, §4

Sorghum = assay: Pre-emergence test/greenhouse; settings: 30 g of ai./ha, after three weeks
Procedure: as §1, §2, §3, §4

Lolium = assay: Pre-emergence test/greenhouse; settings: 30 g of ai./ha, after three weeks
Procedure: as §1, §2, §3, §4

Matricaria = assay: Post-emergence test/greenhouse; settings: application rate 30 g of ai./ha, rated after three weeks vs untreated control
Procedure: as §1
(§5) Test plants which have a height of 5-15 cm are sprayed with the preparation of the active compound in such a way as to apply the particular amounts of active compound desired per unit area. The concentration of the spray liquor is chosen so that the amounts of active compound desired in each case are applied in 1000 l of water/ha.
as §3, §4

Alopecurus [3] = assay: Post-emergence test/greenhouse; settings: application rate 30 g of ai./ha, rated after three weeks vs untreated control
Procedure: as §1, §5, §3, §4

weeds [4] = assay: Post-emergence test/greenhouse
Procedure: as §1, §5, §3, §4

Abutilon = assay: Post-emergence test/greenhouse; settings: application rate 30 g of ai./ha, rated after three weeks vs untreated control
Procedure: as §1, §5, §3, §4

Echinochloa = assay: Post-emergence test/greenhouse; settings: application rate 30 g of ai./ha, rated after three weeks vs untreated control
Procedure: as §1, §5, §3, §4

Compound | activity against weeds (weeds [1]) | Chenopodium, % damage (Chenopodium) | Alopecurus, % damage (Alopecurus [2]) | Steltaria, % damage (Stellaria) | Amaranthus, % damage (Amaranthus) | Sorghum, % damage (Sorghum) | Lolium, % damage (Lolium) | degree of damage to the plants, Matricaria (Matricaria) | degree of damage to the plants, Alopecurus (Alopecurus [3]) | activity against weeds (weeds [4]) | degree of damage to the plants, Abutilon (Abutilon) | degree of damage to the plants, Echinochloa (Echinochloa)
COc1nc(NC(=O)NS(=O)(=O)c2c(C)cccc2OC(C)C)nc(OC)n1 [Example 39] | very strong activity against weeds | 100% | 100% | 100% | 100% | 100% | 100% | 100% | 90% | very strong activity against weeds | 100% | 95%
COc1nc(C)nc(NC(=O)NS(=O)(=O)c2c(C)cccc2OC)n1 [Example 40] | very strong activity against weeds | 100% | 100% | 100% | 100% | 100% | 100% | 100% | 100% | very strong activity against weeds | 95% | 95%
COc1cccc(C)c1S(=O)(=O)NC(=O)Nc1nc(C)cc(C)n1 [Example 41] | very strong activity against weeds | 100% | 95% | 80% | 60% | 100% | 100% | 70% | 60% | very strong activity against weeds | 90% | 95%
COc1cc(C)nc(NC(=O)NS(=O)(=O)c2c(C)cccc2OC)n1 [Example 43] | very strong activity against weeds | 100% | 100% | 100% | 100% | 100% | 100% | 100% | 60% | very strong activity against weeds | 100% | 95%
COc1cc(OC)nc(NC(=O)NS(=O)(=O)c2c(C)cccc2OC)n1 [Example 44] | very strong activity against weeds | 100% | 100% | 100% | 100% | 100% | 100% | 100% | 60% | very strong activity against weeds | 100% | 90%
